In patent US10450297B2, “Sulfonyl amide derivatives for the treatment of abnormal cell growth” (Pfizer, Inc., priority 2007, dated 2019):
Where a name gives a salt, the structure may show the parent alone.

Target: FAK kinase (catalytic construct FAK(410-689)) (Homo sapiens (Human), UniProt Q05397)
Assay: FAKcd kinase ELISA (inhibition of poly-glu-tyr phosphorylation by FAK(410-689))
Assay type: biochemical
Conditions: 50 μM final ATP

Sequence of FAK kinase (catalytic construct FAK(410-689)) (Q05397 410-689): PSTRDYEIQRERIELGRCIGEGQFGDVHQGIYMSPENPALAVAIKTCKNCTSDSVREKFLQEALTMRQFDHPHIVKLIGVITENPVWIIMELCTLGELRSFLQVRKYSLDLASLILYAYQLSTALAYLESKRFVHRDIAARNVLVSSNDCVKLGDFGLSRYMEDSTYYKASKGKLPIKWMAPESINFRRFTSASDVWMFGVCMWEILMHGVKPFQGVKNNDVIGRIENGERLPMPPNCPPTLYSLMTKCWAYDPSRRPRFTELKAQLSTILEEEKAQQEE

Compound | IC50
CN(c1ncccc1CNc1nc(Nc2ccc(C3COC(C)(C)O3)cc2)ncc1C(F)(F)F)S(C)(=O)=O (stereo not shown) [Compound 410, N-[3-({[2-{[4-(2,2-dimethyl-1,3-dioxolan-4-yl)phenyl]amino}-5-(trifluoromethyl)pyrimidin-4-yl)amino}methyl)pyridin-2-yl]-N-methylmethane-sulfonamide] | 1.19 nM
CN(c1nccnc1CNc1nc(Nc2ccc(C(O)CO)cc2)ncc1C(F)(F)F)S(C)(=O)=O (stereo not shown) [Compound 411, N-[3-({[2-{[4-(1,2-dihydroxyethyl)phenyl]amino}-5-(trifluoromethyl)pyrimidin-4-yl]amino}methyl)pyrazin-2-yl]-N-methylmethane-sulfonamide] | 0.941 nM
CN(c1ncccc1CNc1nc(Nc2ccc(C(O)CO)cc2)ncc1C(F)(F)F)S(C)(=O)=O (stereo not shown) [Compound 412, N-[3-({[2-{[4-(1,2-dihydroxyethyl)phenyl]amino}-5-(trifluoromethyl)pyrimidin-4-yl]amino}methyl)pyridin-2-yl]-N-methylmethane-sulfonamide] | < 0.595 nM
CN(c1ncccc1CNc1nc(Nc2ccc(CNCC(C)(C)O)cc2)ncc1C(F)(F)F)S(C)(=O)=O [Compound 413, N-{3-[({2-[(4-{[(2-hydroxy-2-methylpropyl)amino]methyl}phenyl)amino]-5-(trifluoromethyl)pyrimidin-4-yl}amino)methyl]pyridin-2-yl}-N-methylmethanesulfonamide] | < 0.595 nM
CNCc1ccc(Nc2ncc(C(F)(F)F)c(NCc3cccnc3N(C)S(C)(=O)=O)n2)cc1 [Compound 414, N-methyl-N-[3-({[2-({4-[(methylamino)methyl]phenyl}amino)-5-(trifluoromethyl)pyrimidin-4-yl]amino}methyl)pyridin-2-yl]methanesulfonamide] | < 0.595 nM
CNCc1ccc(Nc2ncc(C(F)(F)F)c(NCc3ccccc3N(C)S(C)(=O)=O)n2)cc1 [Compound 415, N-methyl-N-[2-({[2-({4-[(methylamino)methyl]phenyl}amino)-5-(trifluoromethyl)pyrimidin-4-yl]amino}methyl)phenyl]methanesulfonamide] | < 0.595 nM
CN(c1ncccc1CNc1nc(Nc2ccc(CN)cc2)ncc1C(F)(F)F)S(C)(=O)=O [Example 4, N-(3-((2-(4-(aminomethyl)phenylamino)-5-(trifluoromethyl)pyrimidin-4-ylamino)methyl)pyridin-2-yl)-N-methylmethanesulfonamide] | 0.59 nM

More lines, now with the values ahead:

IC50 | Compound
0.6 nM | CC(=O)NCc1ccc(Nc2ncc(C(F)(F)F)c(NCc3cccnc3N(C)S(C)(=O)=O)n2)cc1 [Example 5, N-(4-(4-((2-(N-methylmethan-5-ylsulfonamido)pyridin-3-yl)methylamino)-5-(trifluoromethyl)pyrimidin-2-ylamino)benzyl)acetamide]
< 0.595 nM | CN(c1ncccc1CNc1nc(Nc2ccc(CO)cc2)ncc1C(F)(F)F)S(C)(=O)=O [Example 6, N-(3-((2-(4-(hydroxymethyl)phenylamino)-5-(trifluoromethyl)pyrimidin-4-ylamino)methyl)pyridin-2-yl)-N-methylmethanesulfonamide]
1.55 nM | CN(c1ncccc1CNc1nc(Nc2ccc(CCl)cc2)ncc1C(F)(F)F)S(C)(=O)=O [Example 7, N-(3-((2-(4-(chloromethyl)phenylamino)-5-(trifluoromethyl)pyrimidin-4-ylamino)methyl)pyridin-2-yl)-N-methylmethanesulfonamide]
< 0.595 nM | CN(c1ncccc1CNc1nc(Nc2ccc(CNC(CO)CO)cc2)ncc1C(F)(F)F)S(C)(=O)=O [Example 8, N-(3-((2-(4-((1,3-dihydroxypropan-2-ylamino)methyl)phenylamino)-5-(trifluoromethyl)pyrimidin-4-ylamino)methyl)pyridin-2-yl)-N-methylmethanesulfonamide]
0.6 nM | CN(c1ncccc1CNc1nc(Nc2cccc(C(=O)OC(C)(C)C)c2)ncc1C(F)(F)F)S(C)(=O)=O [Example 9, tert-butyl 3-({4-[({2-[methyl(methylsulfonyl)amino]pyridin-3-yl}methyl)amino]-5-(trifluoromethyl)pyrimidin-2-yl}amino)benzoate]
0.6 nM | CN(c1ncccc1CNc1nc(Nc2cccc(C(=O)O)c2)ncc1C(F)(F)F)S(C)(=O)=O [Example 10, 3-({4-[({2-[methyl(methylsulfonyl)amino]pyridin-3-yl}methyl)amino]-5-(trifluoromethyl)pyrimidin-2-yl}amino)benzoic acid trifluoroacetic acid salt]
1.86 nM | CN(c1ncccc1CNc1nc(Nc2cccc(C(=O)NC3CC3)c2)ncc1C(F)(F)F)S(C)(=O)=O [Example 11, N-cyclopropyl-3-({4-[({2-[methyl(methylsulfonyl)amino]pyridin-3-yl}methyl)amino]-5-(trifluoromethyl)pyrimidin-2-yl}amino)benzamide]
< 0.595 nM | CN(c1ncccc1CNc1nc(Nc2ccc(C(N)=O)c(F)c2)ncc1C(F)(F)F)S(C)(=O)=O [Example 13, 2-fluoro-4-({4-[({2-[methyl(methylsulfonyl)amino]pyridin-3-yl}methyl)amino]-5-(trifluoromethyl)pyrimidin-2-yl}amino)benzamide formic acid salt]
< 0.595 nM | CN(c1ncccc1CNc1nc(Nc2ccc(C(N)=O)cc2F)ncc1C(F)(F)F)S(C)(=O)=O [Example 14, 3-fluoro-4-({4-[({2-[methyl(methylsulfonyl)amino]pyridin-3-yl}methyl)amino]-5-(trifluoromethyl)pyrimidin-2-yl}amino)benzamide formic acid salt]
